From US10160726B2, “Quinolone derivatives as antibacterials” (priority 2014, dated 2018) come the findings set out here.

Structures are written as SMILES. Converted amounts (≈) assume the structure as drawn. Where a name gives a salt, the structure may show the parent alone. Read-outs that look alike come from different tables or passages of the source.

Assay type in all cases: cell-based
The test system of experiment [1] is P. aeruginosa NB52023-CDK0006 (gyrA T83I, parC S87L). Put plainly: microbe, parasite or virus in culture. Particulars: Pseudomonas aeruginosa, 20 h, read-out: Antibacterial activity (MIC) NB52023-CDK0006.
The subject of experiment [2] is S. aureus NB01006-AVR005 (gyrA S84L, grlA S80F, grlB E471K). In words: microbe, parasite or virus in culture. The conditions noted are these: Staphylococcus aureus, 20 h, read-out: Antibacterial activity (MIC) NB01006-AVR005.
Experiment [3] has as its system E. coli ATCC 25922 (NB27001). Put plainly: MIC, broth microdilution (CLSI). The conditions noted are these: Escherichia coli, ATCC25922; E. coli ATCC 25922; 35° C., 20 hours; read-out: Antibacterial activity (MIC) NB27001.
Experiment [4] deals with S. aureus ATCC 29213 (NB01001). Put plainly: MIC, broth microdilution (CLSI). The conditions noted are these: Staphylococcus aureus, ATCC29213; S. aureus ATCC 29213; 35° C., 20 hours; read-out: Antibacterial activity (MIC) NB01001. Background: Broth dilution looks for growth in wells or tubes with falling amounts of substance.
Experiment [5] concerns P. aeruginosa NB52023 (efflux deficient K1542, ΔmexX ΔmexB). Put plainly: microbe, parasite or virus in culture. Particulars: Pseudomonas aeruginosa, 20 h, read-out: Antibacterial activity (MIC) NB52023.
For experiment [6], the system named is P. aeruginosa NB52019 (wild-type PAO1). In words: MIC, broth microdilution (CLSI). Particulars: Pseudomonas aeruginosa, read-out: Antibacterial activity (MIC) NB52019.
Experiment [7] concerns E. coli NB27177 (efflux deficient CGSC 11430, ΔtolC732::kan). In words: microbe, parasite or virus in culture. Particulars: Escherichia coli, 20 h, read-out: Antibacterial activity (MIC) NB27177.
Setting [8] is: P. aeruginosa wild-type PAO1, 35° C., 20 hours.

Turning to `Cc1c(N2CC[C@@H]([C@H](C)N)C2)c(F)cc2c(C(=N)NO)cc(=O)n(C3CC3)c12` [Example 40, 7-((R)-3-((S)-1-aminoethyl)pyrrolidin-1-yl)-1-cyclopropyl-6-fluoro-N-hydroxy-8-methyl-2-oxo-1,2-dihydroquinoline-4-carboximidamide], the MIC in experiment [1] was determined as 8 µg/mL (≈ 20.6 µM); in experiment [2], 4 µg/mL (≈ 10.3 µM); in experiment [3] it was 4 µg/mL (≈ 10.3 µM); in experiment [4], 4 µg/mL (≈ 10.3 µM); in experiment [5], 4 µg/mL (≈ 10.3 µM); in experiment [6] (PAO1, 20 h), 16 µg/mL (≈ 41.3 µM). The MIC in experiment [7] was found to be 0.5 µg/mL (≈ 1.29 µM).

With `Cc1c(N2CC[C@@H]([C@H](C)N)C2)c(F)cc2c(OCCNS(C)(=O)=O)cc(=O)n(C3CC3)c12` [Example 66, N-(2-((7-((R)-3-((S)-1-aminoethyl)pyrrolidin-1-yl)-1-cyclopropyl-6-fluoro-8-methyl-2-oxo-1,2-dihydroquinolin-4-yl)oxy)ethyl)methanesulfonamide], the MIC in experiment [1] is above 32 µg/mL; in experiment [2] it was 4 µg/mL (≈ 8.57 µM); in experiment [3] it was 32 µg/mL (≈ 68.6 µM); in experiment [4], 4 µg/mL (≈ 8.57 µM); in experiment [5], above 32 µg/mL; in experiment [6] (PAO1, 20 h) it was above 32 µg/mL. For the same compound, the MIC in experiment [7] is 2 µg/mL (≈ 4.29 µM).

Turning to `Cc1c(N2CC[C@@H]([C@H](C)N)C2)c(F)cc2c(-c3noc(=O)[nH]3)cc(=O)n(C3CC3)c12` [Example 38, 3-(7-((R)-3-((S)-1-aminoethyl)pyrrolidin-1-yl)-1-cyclopropyl-6-fluoro-8-methyl-2-oxo-1,2-dihydroquinolin-4-yl)-1,2,4-oxadiazol-5(4H)-one], the MIC was above 32 µg/mL in experiment [1]; 4 µg/mL (≈ 9.67 µM) in experiment [2]; 32 µg/mL (≈ 77.4 µM) in experiment [3]; 4 µg/mL (≈ 9.67 µM) in experiment [4]; 32 µg/mL (≈ 77.4 µM) in experiment [5]; above 32 µg/mL in experiment [6] (PAO1, 20 h). Besides, the MIC in experiment [7] was found to be 2 µg/mL (≈ 4.84 µM).

Take `Cc1c(N2CC[C@@H]([C@H](C)N)C2)c(F)cc2c(C3=NOS(=O)N3)cc(=O)n(C3CC3)c12` (stereo partly drawn) [Example 41, 7-((R)-3-((S)-1-aminoethyl)pyrrolidin-1-yl)-1-cyclopropyl-6-fluoro-8-methyl-4-(2-oxido-3H-1,2,3,5-oxathiadiazol-4-yl)quinolin-2(1H)-one]: the MIC came to 8 µg/mL (≈ 18.5 µM) in experiment [1]; 0.5 µg/mL (≈ 1.15 µM) in experiment [2]; 4 µg/mL (≈ 9.23 µM) in experiment [3]; 0.5 µg/mL (≈ 1.15 µM) in experiment [4]; 4 µg/mL (≈ 9.23 µM) in experiment [5]; 16 µg/mL (≈ 36.9 µM) in experiment [6] (PAO1, 20 h). Moreover, in experiment [7], the MIC stood at 0.125 µg/mL (≈ 0.288 µM).

With `CC(=O)N[C@@H](C)[C@@H]1CCN(c2c(F)cc3c(OCCN(C)C)cc(=O)n(C4CC4)c3c2C)C1` [Example 50, N—((S)-1-((R)-1-(1-cyclopropyl-4-(2-(dimethylamino)ethoxy)-6-fluoro-8-methyl-2-oxo-1,2-dihydroquinolin-7-yl)pyrrolidin-3-yl)ethyl)acetamide], the MIC in experiment [1] was above 32 µg/mL; in experiment [2], 2 µg/mL (≈ 4.36 µM); in experiment [3], 32 µg/mL (≈ 69.8 µM); in experiment [4] it was 1 µg/mL (≈ 2.18 µM); in experiment [5], above 32 µg/mL; in experiment [6] (PAO1, 20 h) it was above 32 µg/mL. Further, in experiment [7], the MIC was 0.125 µg/mL (≈ 0.273 µM).

`Cc1c(N2CCNCC2)c(F)cc2c(CN)cc(=O)n(C3CC3)c12` [Example 81.09, 4-(aminomethyl)-1-cyclopropyl-6-fluoro-8-methyl-7-(piperazin-1-yl)quinolin-2(1H)-one]: the MIC in experiment [1] was found to be 2 µg/mL (≈ 6.05 µM); in experiment [2] it was 16 µg/mL (≈ 48.4 µM); in experiment [3] it was 2 µg/mL (≈ 6.05 µM); in experiment [4], 16 µg/mL (≈ 48.4 µM); in experiment [5] it was 0.5 µg/mL (≈ 1.51 µM); in experiment [6] (setting [8]) it was 4 µg/mL (≈ 12.1 µM). Besides, in experiment [7], the MIC was found to be 0.5 µg/mL (≈ 1.51 µM).

In the case of `Cc1c(N2CCC(CN)C2)c(F)cc2c(CN(C)C)cc(=O)n(C3CC3)c12.O=C(O)C(F)(F)F` (stereo not shown) [Example 89, 7-(3-(aminomethyl)pyrrolidin-1-yl)-1-cyclopropyl-4-((dimethylamino)methyl)-6-fluoro-8-methylquinolin-2(1H)-one TFA salt], the MIC in experiment [1] is 32 µg/mL; in experiment [2], 4 µg/mL; in experiment [3], 4 µg/mL; in experiment [4] it was 1 µg/mL; in experiment [5] it was 16 µg/mL; in experiment [6] (setting [8]), above 32 µg/mL. In experiment [7], the MIC turned out to be 0.5 µg/mL.

On to `COc1cc2ccc(N3CC[C@@H]([C@H](C)N)C3)c(C)c2n(C2CC2)c1=O` [Example 80, 7-((R)-3-((S)-1-aminoethyl)pyrrolidin-1-yl)-1-cyclopropyl-3-methoxy-8-methylquinolin-2(1H)-one TFA salt], for which the MIC in experiment [1] is above 32 µg/mL; in experiment [2], 2 µg/mL; in experiment [3], 32 µg/mL; in experiment [4] it was 1 µg/mL; in experiment [5], above 32 µg/mL; in experiment [6] (PAO1, 20 h), above 32 µg/mL. Further, the MIC in experiment [7] came to 2 µg/mL.

With `Cc1c(N2CC[C@@H]([C@H](C)N)C2)c(F)cc2c(OCCCC(=O)O)cc(=O)n(C3CC3)c12` [Example 61, 4-((7-((R)-3-((S)-1-aminoethyl)pyrrolidin-1-yl)-1-cyclopropyl-6-fluoro-8-methyl-2-oxo-1,2-dihydroquinolin-4-yl)oxy)butanoic acid], the MIC in experiment [1] is above 32 µg/mL; in experiment [2], above 32 µg/mL; in experiment [3] it was 32 µg/mL (≈ 74.2 µM); in experiment [4], above 32 µg/mL; in experiment [5], above 32 µg/mL; in experiment [6] (PAO1, 20 h), 32 µg/mL (≈ 74.2 µM). For the same compound, in experiment [7], the MIC is above 32 µg/mL.

Turning to `Cc1c(-c2ccc(N)nc2)ccc2ccc(=O)n(C3CC3)c12` [Example 75, 7-(6-aminopyridin-3-yl)-1-cyclopropyl-8-methylquinolin-2(1H)-one], the MIC is above 32 µg/mL in experiment [1]; 8 µg/mL (≈ 27.5 µM) in experiment [2]; 32 µg/mL (≈ 110 µM) in experiment [3]; 8 µg/mL (≈ 27.5 µM) in experiment [4]; 32 µg/mL (≈ 110 µM) in experiment [5]; above 32 µg/mL in experiment [6] (PAO1, 20 h). Further, the MIC in experiment [7] was 0.5 µg/mL (≈ 1.72 µM).

`Cc1c(N2CC[C@@H]([C@H](C)N)C2)c(F)cc2c(-c3ccccc3)cc(=O)n(C3CC3)c12` [Example 19, 7-((R)-3-((S)-1-aminoethyl)pyrrolidin-1-yl)-1-cyclopropyl-6-fluoro-8-methyl-4-phenylquinolin-2(1H)-one]: the MIC in experiment [1] was above 32 µg/mL; in experiment [2] it was 0.5 µg/mL (≈ 1.23 µM); in experiment [3], 32 µg/mL (≈ 78.9 µM); in experiment [4], 0.5 µg/mL (≈ 1.23 µM); in experiment [5], above 32 µg/mL; in experiment [6] (setting [8]), above 32 µg/mL. Moreover, the MIC in experiment [7] came to 0.5 µg/mL (≈ 1.23 µM).

Regarding `Cc1c(N2CC[C@@H]([C@H](C)N)C2)c(F)cc2c(-c3cn[nH]c3)cc(=O)n(C3CC3)c12` [Example 18, 7-((R)-3-((S)-1-aminoethyl)pyrrolidin-1-yl)-1-cyclopropyl-6-fluoro-8-methyl-4-(1H-pyrazol-4-yl)quinolin-2(1H)-one], the MIC in experiment [1] worked out at 16 µg/mL (≈ 40.5 µM); in experiment [2], 0.25 µg/mL (≈ 0.632 µM); in experiment [3], 32 µg/mL (≈ 80.9 µM); in experiment [4], 0.5 µg/mL (≈ 1.26 µM); in experiment [5], 8 µg/mL (≈ 20.2 µM); in experiment [6] (PAO1, 20 h), 32 µg/mL (≈ 80.9 µM). Also, in experiment [7], the MIC was found to be 0.125 µg/mL (≈ 0.316 µM).

With `Cc1c(N2CC[C@@H]([C@H](C)N)C2)c(F)cc2c(N)cc(=O)n(C3CC3)c12` [Example 36, 4-amino-7-((R)-3-((S)-1-aminoethyl)pyrrolidin-1-yl)-1-cyclopropyl-6-fluoro-8-methylquinolin-2(1H)-one], the MIC was above 16 µg/mL in experiment [1]; 1 µg/mL (≈ 2.9 µM) in experiment [2]; 16 µg/mL (≈ 46.5 µM) in experiment [3]; 2 µg/mL (≈ 5.81 µM) in experiment [4]; 16 µg/mL (≈ 46.5 µM) in experiment [5]; above 16 µg/mL in experiment [6] (PAO1, 20 h). Moreover, in experiment [7], the MIC was 1 µg/mL (≈ 2.9 µM).

As for `Cc1c(N2CC[C@@H]([C@H](C)N)C2)c(F)cc2c(OCCCC(=O)NO)cc(=O)n(C3CC3)c12` [Example 60, 4-((7-((R)-3-((S)-1-aminoethyl)pyrrolidin-1-yl)-1-cyclopropyl-6-fluoro-8-methyl-2-oxo-1,2-dihydroquinolin-4-yl)oxy)-N-hydroxybutanamide], the MIC in experiment [1] was above 32 µg/mL; in experiment [2], 4 µg/mL (≈ 8.96 µM); in experiment [3] it was 32 µg/mL (≈ 71.7 µM); in experiment [4], 8 µg/mL (≈ 17.9 µM); in experiment [5], above 32 µg/mL; in experiment [6] (PAO1, 20 h), above 32 µg/mL. The MIC in experiment [7] amounted to 1 µg/mL (≈ 2.24 µM).

On to `COc1cc2ccc(-c3ccc(N)nc3)c(C)c2n(C2CC2)c1=O` [Example 78, 7-(6-Aminopyridin-3-yl)-1-cyclopropyl-3-methoxy-8-methylquinolin-2(1H)-one TFA salt], for which the MIC in experiment [1] is above 32 µg/mL; in experiment [2], 16 µg/mL; in experiment [3], 32 µg/mL; in experiment [4], 8 µg/mL; in experiment [5], above 32 µg/mL; in experiment [6] (PAO1, 20 h), above 32 µg/mL. In addition, the MIC in experiment [7] amounted to 1 µg/mL.

Turning to `Cc1c(N2CCNCC2)c(F)cc2c(C#N)cc(=O)n(C3CC3)c12` [Example 32, 1-cyclopropyl-6-fluoro-8-methyl-2-oxo-7-(piperazin-1-yl)-1,2-dihydroquinoline-4-carbonitrile], the MIC in experiment [1] was found to be 32 µg/mL (≈ 98 µM); in experiment [2] it was 2 µg/mL (≈ 6.13 µM); in experiment [3], 4 µg/mL (≈ 12.3 µM); in experiment [4] it was 4 µg/mL (≈ 12.3 µM); in experiment [5] it was 16 µg/mL (≈ 49 µM); in experiment [6] (setting [8]), 32 µg/mL (≈ 98 µM). The MIC in experiment [7] is 0.125 µg/mL (≈ 0.383 µM).
